{
  "source": "patent US11732003B2",
  "about": "“Mechanical method of maintaining narrow residence time distributions in continuous flow systems” (priority 2017, dated 2023)",
  "system": "Phi6",
  "experiment": "Static detergent-based virus inactivation, plaque assay for infectivity",
  "format": "cell-based, bacteriophage virus",
  "method": "The purpose of this study was to examine detergent-based virus inactivation kinetics. In this representative experiment, two different concentrations (0.1% and 1.0% v/v) of a detergent, Triton X-100, were used to inactivate a bacteriophage virus, Phi6.\nThe virus spike was added and vortexed to ensure a well-mixed system. […] Detergent was added to reach the desired concentrations of 0.1% and 1.0% v/v. At various time points, a sample was removed and quenched by adding it to buffer at a 1:1000 dilution ratio. The tubes were vortexed after the detergent addition.",
  "data": [
    {"substance": "Triton X-100", "values": [
      {"measurement": "Phi6 LRV", "setting": "0.1% v/v Triton X-100, mAb 15 mg/mL, inactivation time 1 min", "result": "≥5.2"},
      {"measurement": "Phi6 LRV", "setting": "0.1% v/v Triton X-100, mAb 15 mg/mL, inactivation time 2 min", "result": "≥5.2"},
      {"measurement": "Phi6 LRV", "setting": "0.1% v/v Triton X-100, mAb 15 mg/mL, inactivation time 3 min", "result": "≥5.2"},
      {"measurement": "Phi6 LRV", "setting": "0.1% v/v Triton X-100, mAb 15 mg/mL, inactivation time 4 min", "result": "≥5.2"},
      {"measurement": "Phi6 LRV", "setting": "0.1% v/v Triton X-100, mAb 15 mg/mL, inactivation time 5 min", "result": "≥5.2"},
      {"measurement": "Phi6 LRV", "setting": "0.1% v/v Triton X-100, mAb 15 mg/mL, inactivation time 15 min", "result": "≥5.2"},
      {"measurement": "Phi6 LRV", "setting": "0.1% v/v Triton X-100, mAb 15 mg/mL, inactivation time 30 min", "result": "≥5.2"},
      {"measurement": "Phi6 LRV", "setting": "1.0% v/v Triton X-100, mAb 15 mg/mL, inactivation time 1 min", "result": "≥6.2"},
      {"measurement": "Phi6 LRV", "setting": "1.0% v/v Triton X-100, mAb 15 mg/mL, inactivation time 2 min", "result": "≥6.2"},
      {"measurement": "Phi6 LRV", "setting": "1.0% v/v Triton X-100, mAb 15 mg/mL, inactivation time 3 min", "result": "≥6.2"},
      {"measurement": "Phi6 LRV", "setting": "1.0% v/v Triton X-100, mAb 15 mg/mL, inactivation time 4 min", "result": "≥6.2"},
      {"measurement": "Phi6 LRV", "setting": "1.0% v/v Triton X-100, mAb 15 mg/mL, inactivation time 5 min", "result": "≥6.2"},
      {"measurement": "Phi6 LRV", "setting": "1.0% v/v Triton X-100, mAb 15 mg/mL, inactivation time 15 min", "result": "≥6.2"},
      {"measurement": "Phi6 LRV", "setting": "1.0% v/v Triton X-100, mAb 15 mg/mL, inactivation time 30 min", "result": "≥6.2"}
    ]}
  ]
}
